Assay results from patent US20260232644A1, “Compositions Comprising an Inhibitor of Galectin-3” (University of Liverpool, priority 2023, published 2026).
Counter-ions that a name gives are not always drawn.

Experiments:
[1] = tested on: human colon cancer cells; conditions: cited from earlier work
[2] = tested on: human breast cancer cells; conditions: by suppressing activation of NFKB induced by TNFα; cited from earlier work
[3] = tested on: human colon cancer SW620 cells; test: Galectin-3-mediated SW620 cell adhesion to HUVECs; type: cell-based; conditions: Galectin-3 2 μg/ml, various concentrations
Protocol: HUVEC cells at 1×10^5 cells/ml in EGM medium were seeded into 24 well plates pre-inserted with 13 mm glass coverslip. The cells were incubated at 37° C. at 5% CO2 for 24 hr for monolayer formation. AGA19+ or SW620 cell suspension (5×10^5 cells/ml in DMEM) was introduced with 5 μl/ml fluorescent cell labelling solution DiL for 30 min at 37° C. The fluorescent labelled cells were washed twice with PBS and resuspended into 1×10^5 cells/ml in DMEM. The cancer cell suspension was then introduced with galectin-3 (2 μg/ml) and various concentrations of the compound inhibitors at 37° C. for 1 hr. The wells were carefully washed twice with PBS to remove the non-adhesion cells before the cells in the wells were fixed with 2% paraformaldehyde for 10 min. The glass coverslip was carefully removed from the plate, placed on a glass slide. After addition of fluorescence mounting medium containing DAPI, fluorescence labelled cells were quantified under a fluorescence microscope.

[4] = tested on: human lung cancer H1975 cells; test: Lung cancer cell adhesion to basement matrix; type: cell-based; conditions: for IC50: Homo sapiens, NCI-H1975; for Inhibition of H1975 cell adhesion to matrix: different concentrations
Protocol: (§1) Nanty-six well plates were coated with 50 μl Matrigel (1:30 diluted in PBS) at 37° C. for 1 hour.
(§2) Cancer cells, pre-labelled with fluorescent die DiI at 37° C. for 20 minutes, were washed twice with PBS and resuspended into 3×10^4 cells/ml in serum-free medium. The matrix-coated 96-well plates were washed twice with PBS before introduction of 100μ cell suspension with different concentrations of the inhibitors or PBS/DMSO (control) for 1 hour at 37° C. The plates were washed twice with PBS before three randomly selected Field of Views (FOVs) were recorded by fluorescence microscope and number of adhesion cells were quantified by Image J.

[5] = molecular target: T1, full-length galectin-3 (Homo sapiens, UniProt P17931); test: Tryptophan Fluorescence Spectroscopy (TFS) binding affinity, full-length Galectin-3
T1 construct: made in house; host or cells: E. coli
Protocol: The binding affinity of the inhibitors to galectin-3 was determined by Intrinsic Tryptophan Fluorescence Spectroscopy (TFS) exactly as we described recently [Sindrewicz, P., et al., Intrinsic tryptophan fluorescence spectroscopy reliably determines galectin-ligand interactions. Sci Rep, 2019. 9(1): p. 11851]. The Galectin-3 concentration used was 10 μM and the inhibitor titration concentrations were from 0 to 224 μM. DMSO/control buffer (PBS with 2 mM EDTA) titrations were performed and used for background subtraction.

[6] = tested on: triple-negative breast cancer MDA-MB-231 cells; test: Triple-negative breast cancer cell adhesion to basement matrix; type: cell-based, human; conditions: for Effect on adhesion of galectin-3 knockout (Gal3KO) MDA-MB-231 cells: CRISPR/Cas9 Gal3KO cells; for Effect on adhesion of non-transfected (con) MDA-MB-231 cells: control cells; for Inhibition of MDA-MB-231 cell adhesion to matrix: different concentrations
Protocol: as §1, §2
(§3) MDAMB-231 or PANC-1 cells were seeded into 6-well plate (2×10^5 cells) and cultured at 37° C. for 24 hour. Galectin-3 CRISPR Cas9 Knockout plasmid (2 μg) and galectin-3 HDR plasmid (2 μg) was mixed with Plasmid Transfection Medium (21 μl) for 5 minutes before addition to a mixture of lipofectamine STEM Transfection Reagent (STEM00001) (1 μl) and Plasmid Transfection Medium (25 μl) for 10 minutes at room temperature. The cells in the 6-well plates were washed and introduced with the Plasmid DNA/Lipofectamine STEM Transfection Reagent complex at 37° C. for 24 hour. The culture medium was replaced with fresh antibiotics-free medium for further 24 hour before introduction of 10 μg/mL puromycin-containing medium every three days. Successful co-transfection of the CRISPR/Cas9 KO Plasmid and HDR Plasmid was confirmed by expression of red fluorescence protein of the cells. Galectin-3 knockout in the cells was further confirmed by immunoblotting.

[7] = tested on: THP-1 differentiated macrophages; test: Galectin-3-induced IL-1β secretion from macrophages (ELISA); type: cell-based; conditions: Galectin-3 10 μg/ml, various concentrations
Protocol: (§4) Effect of the compound inhibitors on secretion of pro-inflammatory cytokines from macrophages were assessed in THP-1 monocyte differentiated macrophages. THP-1 cells were induced to differentiation into macrophages by incubation with 10 ng/ml PMA for 48 h at 37° C. The culture medium was then replaced with fresh medium without or with 10 μg/ml galectin-3 and various concentrations of the compound inhibitors for 24 h at 37° C. The culture medium was collected and the concentrations of TNFα and IL-1β in the culture medium were determined by TNFα and IL-1β ELISA.

[8] = tested on: human umbilical vein endothelial cells (HUVECs); test: Vascular cell tubule formation (angiogenesis); type: cell-based; conditions: Galectin-3 2 μg/ml, various concentrations
Protocol: Matrigel matrix (50 μl) was added to 96-well plates for 60 min at 37° C. to allow gel formation. HUVEC cells (1×10^5 cells/ml in 1:1 EGM/EBM2 media) was introduced to the plates without or with galectin-3 (2 μg/ml) or different concentrations of compound inhibitors for 24 hr at 37° C. Endothelial cell tube formation was examined with Laser Microscope. The total number of branching points and the sum of the lengths of tubes were measured.

[9] = molecular target: T2, Galectin-3 (Homo sapiens, UniProt P17931); test: Galectin-3 binding to asialofetuin (ASF) ELISA; conditions: for Inhibition of Galectin-3 binding to its ligand asialofetuin (ASF): Galectin-3 5 μg/ml, ASF 20 μg/ml, different concentrations of compound, ELISA; for IC50: read-out: IC50, inhibition of Galectin-3 binding to its ligand
T2 construct: made in house; host or cells: E. coli
Protocol: (§5) Effect of the inhibitors on galectin binding to its ligand asialo fetuin (ASF) was measured by galectin ELISA. Nanty-six well plates were coated overnight with 20 μg/ml ASF in coating buffer (15 mM Na2CO3 17 mM NaHCO3 pH 9.6.). The wells were washed twice with PBS and incubated with blocking buffer (1% BSA in PBS) for 1 hr. The supernatants were removed and replaced with 5 μg/ml recombinant human galectin without or with different concentrations of the compound inhibitors or lactose in blocking buffer for 1 hr at room temperature. The wells were washed and incubated with 1 μg/ml anti-galectin antibody for 2 hr. Following addition of HRP-conjugated secondary antibody for 1 hr, FAST OPD development solution was added for 15-20 minutes. The reaction was terminated by addition of 4M sulphuric acid. The plates were read at 492 nm (reference wavelength 595 nm) by a microplate reader.

[10] = tested on: human pancreatic cancer PANC1 cells; test: Pancreatic cancer cell adhesion to basement matrix; type: cell-based; conditions: for Effect on adhesion of galectin-3 knockout (Gal3KO) PANC1 cells: CRISPR/Cas9 Gal3KO cells; for Effect on adhesion of non-transfected (con) PANC1 cells: control cells; for Inhibition of PANC1 cell adhesion to matrix: different concentrations
Protocol: as §1, §2, §3

[11] = tested on: human colon cancer SW620 cells; test: SW620 cell invasion through HUVECs (transwell); type: cell-based; conditions: Galectin-3 1 ug/ml, transwells, several concentrations
Protocol: HUVECs were plated at a density of 1.5×10^4 cells in 8 μm pore transwells in 24-well plate and cultured for three days to allow formation of tight monolayer. The integrity of HUVEC monolayer was confirmed by measuring TEER and only monolayers with TEER reading>800 Ω/cm^2 were used for the invasion assay. AGA19+ or SW620 cell suspension (5×10^5 cells/ml in DMEM) was introduced with 5 μl/ml fluorescent cell labelling solution DiL for 30 min at 37° C. The fluorescence labelled cells were washed twice with PBS and resuspended into 1×10^5 cells/ml in DMEM. […] The cells at the upper side of the trans-well inserts were gently removed with cotton swabs. The cells migrated to the bottom side of the transwells were fixed with 2% paraformaldehyde for 10 min. The trans-well membrane was removed and placed on glass slides. After addition of fluorescence mounting medium containing DAPI, the fluorescence labelled cells on the membrane were quantified under a fluorescence microscope.

[12] = tested on: human colon cancer SW620 cells; test: LDH release cytotoxicity assay, SW620; type: cell-based; conditions: various concentrations
Protocol: (§6) SW620 cells (5×10^4 cells/ml) were seeded into 96-well plate in DMEM (and incubated at 37° C. 5% CO2 for 24 hr. HUVECs (1.0×10^5 cells/ml) was seeded in EBM medium and incubated for 24-36 hr until they formed a monolayer. Compound inhibitors at different concentrations were then introduced to the cells (10× lysis buffer was included as maximum LDH activity control) for 24 hr. The culture medium was transferred to a new plate and was mixed with equal volume of reaction mixture provided in the kit for 30 min at room temperature before the absorbance was measured at 490 nm (reference 680 nm) by a spectrophotometer.

[13] = tested on: vascular HUVECs; test: LDH release cytotoxicity assay, HUVECs; type: cell-based, human; conditions: various concentrations
Protocol: as §6

[14] = tested on: THP-1 differentiated macrophages; test: Galectin-3-induced TNFα secretion from macrophages (ELISA); type: cell-based; conditions: Galectin-3 10 μg/ml, various concentrations
Protocol: as §4

[15] = molecular target: T3, Galectin-8 (Homo sapiens, UniProt O00214); test: Galectin-8 binding to asialofetuin ELISA; conditions: Gal-8 5 μg/ml, ASF 20 μg/ml
T3 construct: purchased R&D Systems (Abingdon, UK)
T3 sequence (O00214 1-317): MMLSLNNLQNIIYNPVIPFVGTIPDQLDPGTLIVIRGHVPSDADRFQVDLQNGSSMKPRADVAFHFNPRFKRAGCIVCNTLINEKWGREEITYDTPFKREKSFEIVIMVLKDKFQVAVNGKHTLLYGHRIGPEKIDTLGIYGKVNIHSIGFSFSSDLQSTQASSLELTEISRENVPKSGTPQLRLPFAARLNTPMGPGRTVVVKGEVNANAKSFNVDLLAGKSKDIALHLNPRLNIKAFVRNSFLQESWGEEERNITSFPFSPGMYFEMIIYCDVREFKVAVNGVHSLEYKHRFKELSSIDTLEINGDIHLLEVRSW
Protocol: as §5

T2 sequence (P17931 whole entry): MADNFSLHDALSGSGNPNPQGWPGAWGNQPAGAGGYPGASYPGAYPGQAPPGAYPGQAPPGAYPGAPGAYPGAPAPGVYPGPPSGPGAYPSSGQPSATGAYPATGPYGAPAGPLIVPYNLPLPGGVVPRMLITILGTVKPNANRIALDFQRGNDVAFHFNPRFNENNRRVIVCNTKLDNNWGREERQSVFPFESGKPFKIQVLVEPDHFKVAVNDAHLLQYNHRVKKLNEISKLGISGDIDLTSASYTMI
T1 sequence (P17931 whole entry): as above

SMILES: CO/N=C1\CN(c2nc3c(cc2F)c(=O)c(C(=O)O)cn3C2CC2)CC1CN (stereo not drawn) [Formula W, Gemifloxacin]
- Effect on migration and invasion of human colon cancer cells [1]: inhibit migration and invasion
- Effect on migration, invasion and metastasis in human breast cancer cells [2]: inhibit migration, invasion and metastasis

SMILES: Cc1c(O)cccc1C(=O)N[C@@H](CSc1ccccc1)[C@H](O)CN1C[C@H]2CCCC[C@H]2C[C@H]1C(=O)NC(C)(C)C [Formula Y, Nelfinavir mesylate]
- Inhibition of SW620 cell adhesion to HUVECs [3]: dose-dependent inhibition
- IC50 [4]: ~5 µM
- Inhibition of H1975 cell adhesion to matrix [4]: dose-dependent inhibition
- Kd [5]: ~90 µM
- Effect on adhesion of galectin-3 knockout (Gal3KO) MDA-MB-231 cells [6]: lost their inhibitory effect
- IC50 ([6]; Homo sapiens, MDA-MB-231): ~10 µM
- Effect on adhesion of non-transfected (con) MDA-MB-231 cells [6]: significant reduction
- Inhibition of MDA-MB-231 cell adhesion to matrix [6]: dose-dependent inhibition
- Inhibition of galectin-3-induced IL-1β secretion [7]: dose-dependent inhibition
- Inhibition of tubule numbers [8]: dose-dependent inhibition
- Inhibition of vascular tubule length [8]: dose-dependent inhibition
- Inhibition of Galectin-3 binding to its ligand asialofetuin (ASF) [9]: inhibit galectin-3 binding to ASF in a dose-dependent manner
- IC50 [9]: ≤ 10 µM
- Effect on adhesion of galectin-3 knockout (Gal3KO) PANC1 cells [10]: lost their inhibitory effect
- Effect on adhesion of non-transfected (con) PANC1 cells [10]: significant reduction
- Inhibition of PANC1 cell adhesion to matrix [10]: dose-dependent inhibition
- Inhibition of galectin-3-mediated invasion of SW620 cells through HUVECs [11]: dose-dependent inhibition
- Cytotoxicity to SW620 cells (LDH release) [12]: little or low toxicity
- Cytotoxicity to HUVEC cells (LDH release) [13]: little or low toxicity
- Inhibition of galectin-3-induced TNFα secretion [14]: dose-dependent inhibition

SMILES: CN(C)CCOc1ccc(/C(=C(/CCCl)c2ccccc2)c2ccccc2)cc1 [Formula Z, Toremifene citrate]
- Inhibition of SW620 cell adhesion to HUVECs [3]: dose-dependent inhibition
- IC50 [4]: 5 to 10 µM
- Inhibition of H1975 cell adhesion to matrix [4]: dose-dependent inhibition
- Kd [5]: ~35 µM
- Effect on adhesion of galectin-3 knockout (Gal3KO) MDA-MB-231 cells [6]: lost their inhibitory effect
- Effect on adhesion of non-transfected (con) MDA-MB-231 cells [6]: significant reduction
- Inhibition of MDA-MB-231 cell adhesion to matrix [6]: dose-dependent inhibition
- Inhibition of galectin-3-induced IL-1β secretion [7]: dose-dependent inhibition
- Inhibition of tubule numbers [8]: dose-dependent inhibition
- Inhibition of vascular tubule length [8]: dose-dependent inhibition
- Inhibition of Galectin-3 binding to its ligand asialofetuin (ASF) [9]: inhibit galectin-3 binding to ASF in a dose-dependent manner
- IC50 [9]: ≤ 10 µM
- Effect on adhesion of galectin-3 knockout (Gal3KO) PANC1 cells [10]: lost their inhibitory effect
- Effect on adhesion of non-transfected (con) PANC1 cells [10]: significant reduction
- Inhibition of PANC1 cell adhesion to matrix [10]: dose-dependent inhibition
- Inhibition of galectin-3-mediated invasion of SW620 cells through HUVECs [11]: dose-dependent inhibition
- Cytotoxicity to SW620 cells (LDH release) [12]: low cytotoxicity
- Cytotoxicity to HUVEC cells (LDH release) [13]: low cytotoxicity
- Inhibition of galectin-3-induced TNFα secretion [14]: dose-dependent inhibition

SMILES: OC[C@H]1O[C@@H](O[C@H]2[C@H](O)[C@@H](O)C(O)O[C@@H]2CO)[C@H](O)[C@@H](O)[C@H]1O (stereo partly drawn) [lactose]
- Effect on Galectin-8 binding to asialofetuin [15]: dose-dependently inhibits
